This is an account of results in US6399370B1, “Compositions and methods for use of defensin” (priority 1996, dated 2002).

Bridge positions count the residues as written; N and C are the ends. Ends that are not written are not given here.

Test [1] relates to Escherichia coli. The experiment in a line: Broth culture assay of synthetic hBD-1 (optical density). The format is cell-based. The following applies: 500 μg synthetic hBD-1, 1×10^4 bacterial cells in 200 μl 0.25×LB, 7 hours, background subtracted; untreated 0.127. How it is done:
A broth culture assay was also used to assess the antimicrobial activity of hBD-1 directed against Escherichia coli. In this instance, 1×10^4 bacterial cells in 200 μl of 0.25×LB broth were incubated at 37DC in the presence or absence of 500 μg of synthetic hBD-1. After 7 hours, the optical density at 630 nm of the cultures was recorded as a measure of bacterial growth. After subtraction of background due to growth medium, the average optical density of the untreated cultures was 0.127 whereas those containing hBD-1 was 0.004, indicating nearly complete suppression of bacterial growth.

Test [2] deals with Pseudomonas aeruginosa. The test is described as follows: Colony count killing and salt dependence assay of synthetic hBD-1. The format is cell-based. The method, then: FIG. 7 is a graph depicting salt sensitivity of hBD-1 antimicrobial activity against Pseudomonas aeruginosa. Synthetic hBD-1 was incubated with 5×10^4 colony forming units of P. aeruginosa in 100 μl of 10 mM phosphate buffer (pH 7.4) and the indicated concentrations of NaCl. Reactions were then incubated at 37° C. for 20 minutes. Serial dilutions were plated and colony counts were performed the following day.
(§1) Essentially, for assays involving Pseudomonas and Escherichia coli, approximately 5×10^4 bacterial cells were exposed to about 50 μg to 500 μg of synthetic hBD-1 in 10 mM phosphate buffer (pH 7.4) in a reaction volume of 100 μl. Samples were incubated at 37° C. for 20 minutes and were then diluted to 1 ml total volume with the corresponding test buffer. A volume of 100 μl of this solution and of two 10-fold serial dilutions thereof, were plated and incubated overnight at 37° C. to facilitate colony formation.
Salt dependence of antibiotic activity was measured essentially as described for α-defensins (Lehrer et al., 1983, supra; Selsted et al., 1984, supra). Briefly, approximately 5×10^4 bacterial cells were exposed to 50 μg of synthetic hBD-1 in 10 mM phosphate buffer (pH 7.4) containing varying concentrations of NaCl in a reaction volume of 100 μl. Reactions were incubated at 37° C. for 20 minutes and were then diluted to 1 ml total volume with the corresponding test buffer. […]

The next test relates to E. coli. The experiment in a line: Colony count killing assay of synthetic hBD-1. The format is cell-based, Escherichia coli. The following applies: synthetic hBD-1, low NaCl. How it is done: as §1
In test [3] the test system is Escherichia coli. The test is described as follows: Antibiotic activity of extracts of 293 cells transfected with hBD-1 cDNA. The class given is cell-based. The following applies: extracts of kidney cells transfected with full length hBD-1 cDNA; mock transfected did not. The method, then:
(§2) Human embryonal kidney cells (293) (ATCC CRL 1573) grown in the absence of antibiotics were transfected with the pCMV mammalian reporter vector (Clontech) containing the full length hBD-1 cDNA. Transfected and control mock transfected cells were harvested at 24 to 48 hours postransfection, pelleted by centrifugation, resuspended in 10 mM phosphate buffer (pH 7.4) and lysed by brief sonication. Cell debris was removed by centrifugation and the resulting supernatant was tested for antibiotic activity. Approximately 10^3 or 10^4 bacteria were exposed to cell extracts for 2 hours in 10 mM phosphate buffer (pH 7.4) and cell viability was measured by plating several dilutions and counting colonies the following day.

The test system of test [4] is Pseudomonas aeruginosa. The test is described as above. The class given is cell-based. As to conditions: extracts of kidney cells transfected with full length hBD-1 cDNA; mock transfected did not. The method, then:
as §2

The subject of the next test is Staphylococcus aureus. Described as above. The following applies: extracts of kidney cells transfected with full length hBD-1 cDNA; mock transfected did not. The format is cell-based. How it is done:
as §2

In another test the test system is Escherichia coli D31. The test is described as follows: Diffusion and liquid broth assays of lysates of mBD-1 transfected cells, incl. salt and pH dependency. The class given is cell-based. The method, then:
(§3) FIG. 14 is a series of graphs depicting the results of antibacterial assays on mBD-1. In FIGS. 14A, 14B and 14C there is shown the results of antibacterial liquid broth coincubation assays. E. coli (FIG. 14A), S. aureus (FIG. 14B) and P. aertiginosa (FIG. 14C) were added at a concentration of 10^3 to 10^4 cfu to 50 μl of lysates obtained from cells transfected with vector containing full length mBD-1 cDNA (empty circles) or cells transfected with the vector alone (filled circles). Each circle shown represents the results of an individual transfection experiment. In FIG. 14D there is shown the salt sensitivity of the antimicrobial activity of mBD-1. Extracts of mBD-1 transfected cells were incubated with 5×10^4 colony-forming units of E. coli D31 in 100 mM phosphate buffer (pH 7.4) and the indicated concentrations of NaCl. After incubation at 37° C. for 1 hour, serial dilutions of bacteria were plated and colonies were counted the following day.
To test the antibacterial activity of mBD-1, lysates obtained from cells transfected with mBD-1 cDNA positioned in a transfection vector were analyzed. A clinical isolate of Staphylococcus aureus, Escherichia coli D31 (Steiner et al., 1981, Nature 292:246-248), and a clinical isolate of Pseudomonas aeruginosa were used as test organisms in both diffusion assays and liquid broth assays. […]
(§4) Antibacterial liquid broth assays were performed as previously described for α-defensins (Steiner et al., 1981, Nature 292:246-248). […] Cell viability was measured by plating several dilutions and counting colonies the following day. […]
To analyze the salt dependency of the activity of mBD-1 against E. coli D31, NaCl was added to aliquots of the agarose solution to obtain final concentrations of NaCl of 50 mM, 100 mM, 200 mM and 500 mM. The exact concentration of NaCl in the solutions was measured using Na or Cl sensitive electrodes (Microelectrodes). […]

For test [5], the system named is Pseudomonas aeruginosa (clinical isolate). The experiment in a line: Diffusion and liquid broth assays of lysates of mBD-1 transfected cells. As to conditions: lysates of SW 13 cells transfected with mBD-1 cDNA. The format is cell-based. The method, then: as §3
(§5) To test the antibacterial activity of mBD-1, lysates obtained from cells transfected with mBD-1 cDNA positioned in a transfection vector were analyzed. […]
as §4

Test [6] relates to Staphylococcus aureus (clinical isolate). The test is described as above. The class given is cell-based. As to conditions: lysates of SW 13 cells transfected with mBD-1 cDNA. The method, then:
as §3, §5, §4

Turning to “hBD-1: human β-defensin 1; synthetic mature peptide with disulfide bridges Cys5-Cys34, Cys12-Cys27, Cys17-Cys35; also tested as extracts of cDNA-transfected cells (DHYNCVSSGGQCLYSACPIFTKIQGTCYRGKAKCCK; disulfide 12-27, 17-35, 5-34; UniProt P60022 33-68, looked up)”, the “average optical density at 630 nm of cultures (bacterial growth)” value with Escherichia coli [1] was 0.004. Further, the “hBD-1 concentrations at which bacterial killing was observed” value in the test on Pseudomonas aeruginosa [2] (low NaCl, 10 mM phosphate buffer pH 7.4, 37° C., 20 minutes) lay in the range of 60 to 500 µg/mL. The bactericidal activity result in the test with Pseudomonas aeruginosa [2] (synthetic hBD-1, low NaCl) was “potent bactericidal activity”; in the test with E. coli it was “potent bactericidal activity”. In addition, the “antibiotic activity of transfected cell extracts” value in the test on Escherichia coli [3], in the test with Pseudomonas aeruginosa [4] and in the test with Staphylococcus aureus was “exhibited antibiotic activity” each time.

B1: mBD-1: murine β defensin, tested as lysates of SW 13 cells transfected with full length mBD-1 cDNA (protein)
chain: MKTHYFLLVMICFLFSQMEPGVGILTSLGRRTDQYKCLQHGGFCLRSSCPSNTKLQGTCKPDKPNCCKS
For the molecule B1, the “antimicrobial activity of lysates” value is on record as “active” in the test with Escherichia coli D31 (lysates of SW 13 cells transfected with mBD-1 cDNA, diffusion and liquid broth assays); “active” in test [5]; “active” in test [6]. The “antimicrobial activity in acidic pH” value in the test on Escherichia coli D31 (lysates of mBD-1 transfected cells, acidic pH) was “substantially diminished and lost”. In the test on Escherichia coli D31 (lysates of mBD-1 transfected cells, high NaCl), the “antimicrobial activity in high concentrations of NaCl” value is “substantially diminished and lost”.
